From US20160045529A1, “Pharmaceutical Compositions Containing Palmitoylethanolamide And Cytidine-Diphosphocholine And Methods Of Treatment Therewith” (EPITECH GROUP S.R.L., priority 2014, published 2016)

Columns and labels:
[1] = test system: middle cerebral artery occlusion in rats; test: Middle cerebral artery occlusion by ligation in rats, infarction area; type: in vivo; conditions: MCAo, suspended in CMC 1.5%; for % Infarction Area: Only CMC = 100.00; for Infarction Area in mm^2: Only CMC control 38.5
Source text: Brain Res. 2012 Oct 5;1477:45-58]. Using such a method the maximum ineffective dose of the two substances, ultramicronized palmitoylethanolamide and cytidinediphosphocholine, administered separately orally suspended in carboxymethyl cellulose at 1.5% was initially sought. In the maximum ineffective doses found, the two substances were then mixed and administered together again suspended in CMC at 1.5%. The results obtained are collected in the following table 1 and the data of the synergic association between PEA and Citicoline are presented in FIGS. 1A-1B and FIGS. 2A-2B. FIGS. 1A-1B show images of coronal sections after occlusion of the middle cerebral artery (MCAo) in the absence (FIG. 1A), or in the presence of the combined treatment described above (FIG. 1B). FIG. 2 highlights the detected measurements of the infarctual area (FIG. 2A) and volume (FIG. 2B) in the absence or in the presence of the treatment.

cranial trauma model = conditions: preclinical, optimal dose of 10 mg/kg; cited from earlier work
[2] = test system: stroke model from ligation of the middle cerebral artery; conditions: preclinical, optimal dose of 10 mg/kg; cited from earlier work
[3] = test system: dementia from damage due to beta amyloid; conditions: preclinical, optimal dose of 10 mg/kg; cited from earlier work

C[N+](C)(C)CCOP(=O)(O)OP(=O)([O-])OC[C@H]1O[C@@H](n2ccc(N)nc2=O)[C@H](O)[C@@H]1O [Citicoline, Cytidine-diphosphocholine]
% Infarction Area ([1]; 50 mg/kg orally): 99.48% | Infarction Area in mm^2 ([1]; 50 mg/kg orally): 38.3 mm^2

CCCCCCCCCCCCCCCC(=O)NCCO [PEA-um, palmitoylethanolamide]
% Infarction Area ([1]; 1 mg/kg orally): 99.22% | Infarction Area in mm^2 ([1]; 1 mg/kg orally): 38.2 mm^2

CCCCCCCCCCCCCCCC(=O)NCCO [palmitoylethanolamide]
effect in the cranial trauma model (cranial trauma model): substantial effect | effect in the stroke model [2]: substantial effect | effect in the model of dementia from damage due to beta amyloid [3]: substantial effect
